From PMC10254530, “Design and Synthesis of Brefeldin A-Isothiocyanate Derivatives with Selectivity and Their Potential for Cervical Cancer Therapy” (Molecules, 2023)
Where two headings read alike, the source gives them in different places.

Tests used:
[1] = test system: L-02 cells; experiment: CCK-8 cytotoxicity assay, normal liver L-02; type: cell-based; conditions: Homo sapiens, read-out: IC50 L-02
Method: (§1) All cells were cultured in Dulbecco’s Modified Eagle’s Medium (DMEM) (Burlington, MA, USA) or Roswell Park Memorial Institute (RPMI)-1640 medium containing 10% fetal bovine serum and 1% penicillin/streptomycin in an incubator at 37 °C and 5% CO2. […] Cell suspension with a concentration of 8 × 10^4 cells/mL was prepared after cell counting. 100 μL cell suspension was added to each well of the 96-well plate and then placed in an incubator overnight. Most of the derivatives were configured into 80 mM, 20 mM or 4 mM stock solution in DMSO, and the stock solution concentration of BFA and paclitaxel was 0.4 mM. […] The medium in each well was discarded, and 100 μL of gradient diluted derivative solution was added (the control group was added with serum-free medium).

[2] = test system: HepG2 cells; experiment: CCK-8 antiproliferative assay, HepG2; type: cell-based; conditions: Homo sapiens, read-out: IC50 HepG2
Method: as §1

[3] = test system: MDA-MB-231 cells; experiment: CCK-8 antiproliferative assay, MDA-MB-231; type: cell-based; conditions: Homo sapiens, read-out: IC50 MDA-MB-231
Method: as §1

[4] = test system: A375 cells; experiment: CCK-8 antiproliferative assay, A375; type: cell-based; conditions: Homo sapiens, read-out: IC50 A375
Method: as §1

[5] = test system: HeLa cells; experiment: CCK-8 antiproliferative assay, HeLa; type: cell-based, human; conditions: for IC50: Homo sapiens, HeLa, read-out: IC50 HeLa; for SIHeLa, selectivity index between L-02 and HeLa: SI = IC50(L-02)/IC50(HeLa)
Method: as §1

[6] = test system: A549 cells; experiment: CCK-8 antiproliferative assay, A549; type: cell-based; conditions: Homo sapiens, read-out: IC50 A549
Method: as §1

[7] = L02, CCK-8, 48 h, normal liver cells, mean ± SD of three experiments
[8] = HepG2, CCK-8, 48 h, mean ± SD of three experiments
[9] = MDA-MB-231, CCK-8, 48 h, mean ± SD of three experiments
[10] = A-375, CCK-8, 48 h, mean ± SD of three experiments
[11] = CCK-8, 48 h, mean ± SD of three experiments
[12] = A549, CCK-8, 48 h, mean ± SD of three experiments

SMILES | IC50 [1, 7] [µM] | IC50 [2, 8] [µM] | IC50 [3, 9] [µM] | IC50 [4, 10] [µM] | IC50 [5, 11] [µM] | IC50 [6, 12] [µM] | IC50 ([1]; L02, 48 h) [µM] | IC50 ([2]; HepG2, 48 h) [µM] | IC50 ([3]; MDA-MB-231, 48 h) [µM] | IC50 ([4]; A-375, 48 h) [µM] | IC50 ([5]; 48 h) [µM] | SIHeLa, selectivity index between L-02 and HeLa [5] | IC50 ([6]; A549, 48 h) [µM]
C[C@H]1CCC/C=C/[C@@H]2C[C@H](O)C[C@H]2[C@H](OC(=O)CCC(=O)OCCCCCCOC(=O)c2ccc(N=C=S)cc2)/C=C/C(=O)O1 [Compound 9e, (1R,2E,6S,10E,11aS,13S,14aR)-13-Hydroxy-6-methyl-4-oxo-1,6,7,8,9,11a,12,13,14,14a-decahydro-4H-cyclopenta[f][1]oxacyclotridecin-1-yl (6-((4-isothiocyanatobenzoyl)oxy)hexyl) succinate] | 7.87 ± 0.33 | 5.77 ± 0.07 | 1.56 ± 0.05 | 3.87 ± 0.35 | 0.81 ± 0.03 | 2.59 ± 0.13 |  |  |  |  |  |  | 
C[C@H]1CCC/C=C/[C@@H]2C[C@H](OC(=O)/C=C\C(=O)OCCCCCCOC(=O)c3ccc(N=C=S)cc3)C[C@H]2[C@H](OC(=O)/C=C\C(=O)OCCCCCCOC(=O)c2ccc(N=C=S)cc2)/C=C/C(=O)O1 [Compound 8k, Bis(6-((4-isothiocyanatobenzoyl)oxy)hexyl) O,O’-((1R,2E,6S,10E,11aS,13S,14aR)-6-methyl-4-oxo-1,6,7,8,9,11a,12,13,14,14a-decahydro-4H-cyclopenta[f][1]oxacyclotridecine-1,13-diyl) dimaleate] | > 80 | > 40 | > 40 | > 40 | > 40 | > 40 |  |  |  |  |  |  | 
C[C@H]1CCC/C=C/[C@@H]2C[C@H](OC(=O)c3ccc(N=C=S)cc3)C[C@H]2[C@H](OC(=O)c2ccc(N=C=S)cc2)/C=C/C(=O)O1 [Compound 5, (1R,2E,6S,10E,11aS,13S,14aR)-6-methyl-4-oxo-1,6,7,8,9,11a,12,13,14,14a-decahydro-4H-cyclopenta[f][1]oxacyclotridecine-1,13-diyl bis(4-isothiocyanatobenzoate)] | > 80 | > 40 | > 40 | > 40 | > 40 | 20.9 ± 1.42 |  |  |  |  |  |  | 
O=C(O)c1ccc(N=C=S)cc1 [Compound 2, 4-Carboxyphenyl isothiocyanate, reference compound] |  |  |  |  |  |  | 67.8 ± 2 | > 100 | 82.1 ± 2.7 | 43 ± 3.34 | 45.7 ± 1.74 | 1.48 | 79.2 ± 2.52
C[C@H]1CCC/C=C/[C@@H]2C[C@H](OC(=O)/C=C\C(=O)OCCCCOC(=O)c3ccc(N=C=S)cc3)C[C@H]2[C@H](OC(=O)/C=C\C(=O)OCCCCOC(=O)c2ccc(N=C=S)cc2)/C=C/C(=O)O1 [Compound 8h, Bis(4-((4-isothiocyanatobenzoyl)oxy)butyl) O,O’-((1R,2E,6S,10E,11aS,13S,14aR)-6-methyl-4-oxo-1,6,7,8,9,11a,12,13,14,14a-decahydro-4H-cyclopenta[f][1]oxacyclotridecine-1,13-diyl) dimaleate] | > 80 | > 40 | > 40 | > 40 | 8.48 ± 0.72 | > 40 |  |  |  |  |  |  | 
C[C@H]1CCC/C=C/[C@@H]2C[C@H](OC(=O)CCC(=O)OCC#CCOC(=O)c3ccc(N=C=S)cc3)C[C@H]2[C@H](OC(=O)CCC(=O)OCC#CCOC(=O)c2ccc(N=C=S)cc2)/C=C/C(=O)O1 [Compound 8c, Bis(4-((4-isothiocyanatobenzoyl)oxy)but-2-yn-1-yl) O,O’-((1R,2E,6S,10E,11aS,13S,14aR)-6-methyl-4-oxo-1,6,7,8,9,11a,12,13,14,14a-decahydro-4H-cyclopenta[f][1]oxacyclotridecine-1,13-diyl) disuccinate] | > 80 | > 40 | > 40 | > 40 | 39 ± 1.43 | > 40 |  |  |  |  |  | >2.05 | 
C[C@H]1CCC/C=C/[C@@H]2C[C@H](OC(=O)CCC(=O)OCCOC(=O)c3ccc(N=C=S)cc3)C[C@H]2[C@H](OC(=O)CCC(=O)OCCOC(=O)c2ccc(N=C=S)cc2)/C=C/C(=O)O1 [Compound 8a, Bis(2-((4-isothiocyanatobenzoyl)oxy)ethyl) O,O’-((1R,2E,6S,10E,11aS,13S,14aR)-6-methyl-4-oxo-1,6,7,8,9,11a,12,13,14,14a-decahydro-4H-cyclopenta[f][1]oxacyclotridecine-1,13-diyl) disuccinate] | > 80 | > 40 | > 40 | > 40 | 12 ± 1.47 | > 40 |  |  |  |  |  | >6.68 | 
C[C@H]1CCC/C=C/[C@@H]2C[C@H](OC(=O)CCC(=O)OCCCCOC(=O)c3ccc(N=C=S)cc3)C[C@H]2[C@H](OC(=O)CCC(=O)OCCCCOC(=O)c2ccc(N=C=S)cc2)/C=C/C(=O)O1 [Compound 8b, Bis(4-((4-isothiocyanatobenzoyl)oxy)butyl) O,O’-((1R,2E,6S,10E,11aS,13S,14aR)-6-methyl-4-oxo-1,6,7,8,9,11a,12,13,14,14a-decahydro-4H-cyclopenta[f][1]oxacyclotridecine-1,13-diyl) disuccinate] | > 80 | > 40 | > 40 | > 40 | 16.4 ± 1.35 | > 40 |  |  |  |  |  | >4.88 | 
C[C@H]1CCC/C=C/[C@@H]2C[C@H](OC(=O)CCC(=O)OCCCCCCOC(=O)c3ccc(N=C=S)cc3)C[C@H]2[C@H](OC(=O)CCC(=O)OCCCCCCOC(=O)c2ccc(N=C=S)cc2)/C=C/C(=O)O1 [Compound 8e, Bis(6-((4-isothiocyanatobenzoyl)oxy)hexyl) O,O’-((1R,2E,6S,10E,11aS,13S,14aR)-6-methyl-4-oxo-1,6,7,8,9,11a,12,13,14,14a-decahydro-4H-cyclopenta[f][1]oxacyclotridecine-1,13-diyl) disuccinate] | > 80 | > 40 | > 40 | > 40 | 26.8 ± 0.7 | > 40 |  |  |  |  |  | >2.99 | 
C[C@H]1CCC/C=C/[C@@H]2C[C@H](OC(=O)CCC(=O)Oc3ccc(OC(=O)c4ccc(N=C=S)cc4)cc3)C[C@H]2[C@H](OC(=O)CCC(=O)Oc2ccc(OC(=O)c3ccc(N=C=S)cc3)cc2)/C=C/C(=O)O1 [Compound 8f, Bis(4-((4-isothiocyanatobenzoyl)oxy)phenyl) O,O’-((1R,2E,6S,10E,11aS,13S,14aR)-6-methyl-4-oxo-1,6,7,8,9,11a,12,13,14,14a-decahydro-4H-cyclopenta[f][1]oxacyclotridecine-1,13-diyl) disuccinate] | > 80 | > 40 | > 40 | > 40 | > 40 | > 40 |  |  |  |  |  |  | 
C[C@H]1CCC/C=C/[C@@H]2C[C@H](OC(=O)c3ccc(N=C=S)cc3)C[C@H]2[C@H](O)/C=C/C(=O)O1 [Compound 7, (1R,2E,6S,10E,11aS,13S,14aR)-1-Hydroxy-6-methyl-4-oxo-1,6,7,8,9,11a,12,13,14,14a-decahydro-4H-cyclopenta[f][1]oxacyclotridecin-13-yl 4-isothiocyanatobenzoate] | 8.6 ± 0.71 | > 40 | 17 ± 1.21 | 5.78 ± 0.1 | 3.02 ± 0.23 | 20.4 ± 1.31 |  |  |  |  |  | 2.85 | 
